Assay [1] concerns GST-PPARα. Nature of the assay: Competition binding for PPARα against the radioligand of Example 2. As to conditions: 100 nM radioligand of Example 2, 1000-fold excess (100 microM) of competitor; no competitor 40,200 cpm bound. On the procedure:
a) Binding of the radioligand of Example 2 to PPARα The ligand binding domains of mouse and human PPARα were expressed in E. Coli as fusion proteins with glutathione-S-transferase (GST). DNA encoding the ligand binding domain of mouse and human PPARa was amplified via polymerase chain reaction and inserted in-frame into the bacterial expression vector pGEX-2T (Pharmacia). GST-mPPARα and GST-hPPARa fusion proteins were expressed in BL21(DE3)plysS cells. After a 2 hour induction with 1 mM IPTG, the cells were lysed by freeze/thaw in 1/10 volumes of a buffer containing 50 mM Tris (pH 8), 250 mM KCl, 10 mM DTT, 1 mM PMSF, and 1% Triton X-100. Lysates were clarified by centrifugation for 1 hr at 50,000 x g. 1.5 ml of a 50% glutathione-sepharose bead (Pharmacia)/phosphate buffered saline slurry was added to 10 ml of clarified lysate, the mixture incubated for 30 minutes, and the glutathione-sepharose bead-GST-PPARα complexes were then collected by centrifugation and washed twice in binding buffer containing 50 mM KCl, 10 mM Tris (pH 8), 1 mM DTT. The washed glutathione-sepharose bead-PPARα complexes were resuspended in 0.75 ml binding buffer containing 10% glycerol. […]

The target in assay [2] is T1, mPPARα (Mus musculus, UniProt P23204).
T1 construct: amino acids 174-475 of PPARα; expressed in transfected cells; host or cells: CV-1 cells
T1 sequence (P23204 167-468 limits assumed): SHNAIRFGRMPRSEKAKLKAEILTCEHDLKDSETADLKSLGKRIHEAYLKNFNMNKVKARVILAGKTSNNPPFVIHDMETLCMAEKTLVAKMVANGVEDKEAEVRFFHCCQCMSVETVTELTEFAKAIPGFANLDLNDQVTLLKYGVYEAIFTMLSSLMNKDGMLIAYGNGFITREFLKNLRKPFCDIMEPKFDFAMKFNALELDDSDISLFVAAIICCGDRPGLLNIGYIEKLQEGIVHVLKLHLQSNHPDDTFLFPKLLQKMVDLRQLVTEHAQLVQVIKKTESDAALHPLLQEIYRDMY
Nature of the assay: Transient cotransfection assay, GAL4-PPARα chimera in CV-1 cells (mouse PPARα). It is filed as cell-based. As to conditions: transfection assay. An excerpt: (§1) A transient cotransfection assay was used to screen for PPARα activator activity of compounds of formula (I).
(§2) As mammalian cell lines contain endogenous nuclear receptors that can complicate interpretation of the results, we used an established chimera system in which the ligand-binding domain of the PPAR-α was fused to the DNA binding domain of the yeast transcription factor GAL4.The GAL4-PPARα chimera was cotransfected into CV-1 cells with a reporter construct containing five copies of the GAL4 binding site upstream of the thymidine kinase promotor driving secreted placental alkaline phosphatase (SPAP) as reporter.
(§3) GAL4-PPAR chimera and UAS-tk-CAT/SPAP reporters. […]
(§4) Transfection assay; SPAP reporter. […] 16 h later the medium was exchanged to DME medium supplemented with 10% delipidated fetal calf serum and the test compound at a concentration of 10^-5 M. After incubation for an additional 24 h SPAP activity and β-galactosidase activity were measured as previously described (Pfahl et al., 1990).
(§5) Transfection assay: CAT reporter. […] After incubation for an additional 24 h, chloramphenicol acetyl transferase (CAT) activity and β-galactosidase activity were measured as previously described (Pfahl et al., 1990). […]

Assay [3] concerns the target T2, hPPARα (Homo sapiens, UniProt Q07869).
T2 construct: amino acids 174-475 of PPARα; expressed in transfected cells; host or cells: CV-1 cells
T2 sequence (Q07869 167-468 limits assumed): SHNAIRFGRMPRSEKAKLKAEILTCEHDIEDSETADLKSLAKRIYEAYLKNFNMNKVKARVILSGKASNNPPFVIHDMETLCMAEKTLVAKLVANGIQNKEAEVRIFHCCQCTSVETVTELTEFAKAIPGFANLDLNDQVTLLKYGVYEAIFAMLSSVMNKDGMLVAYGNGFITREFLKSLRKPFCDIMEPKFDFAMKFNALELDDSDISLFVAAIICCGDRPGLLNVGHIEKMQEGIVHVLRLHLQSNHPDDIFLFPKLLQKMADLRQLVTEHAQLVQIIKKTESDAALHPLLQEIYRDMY
Nature of the assay: Transient cotransfection assay, GAL4-PPARα chimera in CV-1 cells (human PPARα). It is filed as cell-based. As to conditions: transfection assay.
From the text: as §1, §2, §3, §4, §5

Assay [4] in a line: Change of body weight in hamsters on 1% cholesterol chow, 14 days oral dosing. As to conditions: for change of body weight (gained): diet-only control gained 23.2 g; for change of body weight (lost): Compound B Test, diet-only control gained 13 g. It is filed as in vivo, Golden Syrian hamsters. On the procedure: Male Golden Syrian hamsters (supplied by Charles River), weighing approximately 140-150 g at the start of the study, were subjected to the following dietary regime. On day 0, four groups of animals (n=6/group) were begun on a diet consisting of rodent chow containing 1% cholesterol. Three of the four groups on the cholesterol diet also began oral dosing with Compound A as described in Example 3 ([…]). Compound A was given as a suspension in 5% bicarbonate and 0.5% methyicellulose. The study was carried out for 14 days.
The above dietary regime was also carried out with Compound B, but the dosages of Compound B employed were 0.1, 0.5 and 1mglkg/day.
The changes of body weight observed were as follows: […]

This note sets out measurements from US6028109A, “Use of agonists of the peroxisome proliferator activated receptor alpha for treating obesity” (Glaxo Wellcome Inc., priority 1996, dated 2000).

As usually defined, the EC50 is the concentration needed to bring the measured effect to its halfway point. Read a low EC50 as higher potency in that assay. As for `CCCCCCCN(CCc1ccc(OC(C)(C)C(=O)O)cc1)C(=O)Nc1ccc(F)cc1` [Compound A, 2-(4[2-(3-[4-fluorophenyl]-1-heptylureido)ethyl]-phenoxy)-2-methylpropionicacid], the cpm bound in assay [1] is recorded as 18,300 cpm. The EC50 was 13 nM in assay [2] and 545 nM in assay [3]. Besides, the “change of body weight (gained)” value in assay [4] (0.05 mg/kg/day oral) came out at 20 g; in assay [4] (0.1 mg/kg/day oral, Compound A Test), 26.2 g; in assay [4] (0.25 mg/kg/day oral), 12.6 g; in assay [4] (0.5 mg/kg/day oral, Compound A Test) it was 3.4 g.
`CCCCCCCN(CCc1ccc(OC(C)(C)C(=O)O)cc1)C(=O)Nc1ccc(F)cc1F` [Compound B, 2-(4-[2-(3-[2,4-difluorophenyl]-1-heptylureido)ethyl]-phenoxy)-2-methylpropionic acid]: the cpm bound in assay [1] is on record as 13,000 cpm. Further, the EC50 came to 25 nM in assay [2] and 720 nM in assay [3]. The “change of body weight (lost)” value is on record as 12.3 g in assay [4] (0.5 mg/kg/day oral) and 12.4 g in assay [4] (1 mg/kg/day oral).
